# Assay results reported in PMC9944328 (Nature Communications, 2023).
# Like-named read-outs stand apart in the source and are kept apart here.
# Test system: SSTR2 mutants
# Assay: NanoBiT β-arrestin 1 recruitment assay, HEK293 (SSTR2 mutants);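 for Best-fit values Bottom: percent of maximal wild-type response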;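 for Best-fit values Span: percent of maximal wild-type response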;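 for Best-fit values Top: percent of maximal wild-type response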;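 for Bottom (best-fit): percent of maximal wild-type response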;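 for Span (best-fit): percent of maximal wild-type response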;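 for Top (best-fit value): percent of maximal wild-type response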;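 for Top (best-fit): percent of maximal wild-type response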;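 for Top: percent of maximal wild-type response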
# Assay type: cell-based, human
# Design: Bottom / Span / Bottom (best-fit) / Span (best-fit) / Best-fit values Bottom / Best-fit values Span / Bottom (best-fit value) / Span (best-fit value):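 percent of maximal wild-type response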
# Description: The NanoBiT β-arrestin 1 recruitment assays were carried out according to the method described previously. […] Human full-length SSTR wild-type and mutant vectors were C-terminally fused with a 15-amino acid flexible linker and the small fragment (SmBiT). HEK293 cells were seeded into six-well microplates at a density of 1.0 × 10^6 cells/well and cultured for 24 h at 37 °C with 5% CO2. After that, cells were co-transfected with pcDNA3.1+ vectors encoding SSTR wild-type or mutants and human β-arrestin 1. After transfecting for 24 h, the transfected cells were suspended and seeded into white 96-well plates, and then cultured at 37 °C overnight. After that the medium in each well was exchanged for 90 μl of 0.01% bovine serum albumin containing 20 μl of 50 μM coelenterazine h (Carbosynth) diluted in the HBSS assay buffer and incubated for 40 min at room temperature. Then, ligands diluted in the assay buffer was added to each well and the luminescence intensity was measured using the Synergy H1 microplate reader and detected at room temperature in a time period. All data presented are means of at least three independent experiments.
# [1] = D295A-1 (run 1), β-arrestin1 recruitment
# [2] = D295A-2 (run 2), β-arrestin1 recruitment
# [3] = D295A-3 (run 3), β-arrestin1 recruitment
# [4] = L290A-1 (run 1), β-arrestin1 recruitment
# [5] = L290A-2 (run 2), β-arrestin1 recruitment
# [6] = L290A-3 (run 3), β-arrestin1 recruitment
# [7] = S279A-1 (run 1), β-arrestin1 recruitment
# [8] = S279A-2 (run 2), β-arrestin1 recruitment
# [9] = S279A-3 (run 3), β-arrestin1 recruitment
# [10] = Y302A-1 (run 1), β-arrestin1 recruitment
# [11] = Y302A-2 (run 2), β-arrestin1 recruitment
# [12] = Y302A-3 (run 3), β-arrestin1 recruitment
# [13] = best-fit value, I195A-1 (run 1)
# [14] = best-fit value, I195A-2 (run 2)
# [15] = best-fit value, I195A-3 (run 3)
compound,measurement,setting,value
C[C@@H](O)[C@@H]1NC(=O)[C@H](CCCCN)NC(=O)[C@@H](Cc2c[nH]c3ccccc23)NC(=O)[C@H](Cc2ccccc2)NC(=O)[C@@H](NC(=O)[C@H](N)Cc2ccccc2)CSSC[C@@H](C(=O)N[C@H](CO)[C@@H](C)O)NC1=O [octreotide],Bottom (best-fit value),[1],0.2059
same,LogEC50 (best-fit value),[1],-6.975
same,Span (best-fit value),[1],90.14
same,Top (best-fit value),[1],90.34
same,EC50,"D295A-1 (run 1), β-arrestin1 recruitment, read-out: EC50 (best-fit value)",106 nM
same,Bottom (best-fit value),[2],-0.553
same,LogEC50 (best-fit value),[2],-6.954
same,Span (best-fit value),[2],94.35
same,Top (best-fit value),[2],93.8
same,EC50,"D295A-2 (run 2), β-arrestin1 recruitment, read-out: EC50 (best-fit value)",111 nM
same,Bottom (best-fit value),[3],-6.587
same,LogEC50 (best-fit value),[3],-6.025
same,Span (best-fit value),[3],251.8
same,Top (best-fit value),[3],245.2
same,EC50,"D295A-3 (run 3), β-arrestin1 recruitment, read-out: EC50 (best-fit value)",944 nM
same,Bottom (best-fit),F127A-1,-1.151
same,LogEC50 (best-fit),F127A-1,-8.337
same,Span (best-fit),F127A-1,58.78
same,Top (best-fit),F127A-1,57.63
same,EC50,"F127A-1, read-out: EC50 (best-fit)",4.6 nM
same,Bottom (best-fit),F127A-2,-1.134
same,LogEC50 (best-fit),F127A-2,-8.363
same,Span (best-fit),F127A-2,52.24
same,Top (best-fit),F127A-2,51.1
same,EC50,"F127A-2, read-out: EC50 (best-fit)",4.33 nM
same,Bottom (best-fit),F127A-3,-1.083
same,LogEC50 (best-fit),F127A-3,-8.391
same,Span (best-fit),F127A-3,50.21
same,Top (best-fit),F127A-3,49.13
same,EC50,"F127A-3, read-out: EC50 (best-fit)",4.07 nM
same,Bottom (best-fit),F208A-1,-1.787
same,LogEC50 (best-fit),F208A-1,-6.773
same,Span (best-fit),F208A-1,82.48
same,Top (best-fit),F208A-1,80.69
same,EC50,"F208A-1, read-out: EC50 (best-fit)",169 nM
same,Bottom (best-fit),F208A-2,-1.774
same,LogEC50 (best-fit),F208A-2,-6.823
same,Span (best-fit),F208A-2,91.81
same,Top (best-fit),F208A-2,90.03
same,EC50,"F208A-2, read-out: EC50 (best-fit)",150 nM
same,Bottom (best-fit),F208A-3,-1.249
same,LogEC50 (best-fit),F208A-3,-6.77
same,Span (best-fit),F208A-3,80.71
same,Top (best-fit),F208A-3,79.46
same,EC50,"F208A-3, read-out: EC50 (best-fit)",170 nM
same,β-arrestin recruitment of mutant,F294(7.35)A,nearly impaired the octreotide-induced β-arrestin recruitment
same,β-arrestin signal of mutants,I284ECL3A and K291(7.32)A,reduced potency and efficacy of octreotide induced β-arrestin signal
same,Bottom (best-fit value),[4],5.848
same,LogEC50 (best-fit value),[4],-8.723
same,Span (best-fit value),[4],78.77
same,Top (best-fit value),[4],84.62
same,EC50,"L290A-1 (run 1), β-arrestin1 recruitment, read-out: EC50 (best-fit value)",1.89 nM
same,Bottom (best-fit value),[5],5.656
same,LogEC50 (best-fit value),[5],-8.77
same,Span (best-fit value),[5],81.03
same,Top (best-fit value),[5],86.69
same,EC50,"L290A-2 (run 2), β-arrestin1 recruitment, read-out: EC50 (best-fit value)",1.7 nM
same,Bottom (best-fit value),[6],-1.116
same,LogEC50 (best-fit value),[6],-8.203
same,Span (best-fit value),[6],76.53
same,Top (best-fit value),[6],75.41
same,EC50,"L290A-3 (run 3), β-arrestin1 recruitment, read-out: EC50 (best-fit value)",6.27 nM
same,β-arrestin recruitment of mutant,N276(6.55)A,nearly abolished the recruitment of β-arrestin
same,Best-fit values Bottom,P220A-1,0.1149
same,Best-fit values LogEC50,P220A-1,-6.553
same,Best-fit values Span,P220A-1,34.49
same,Best-fit values Top,P220A-1,34.6
same,EC50,"P220A-1, read-out: Best-fit values EC50",280 nM
same,Best-fit values Bottom,P220A-2,-0.6221
same,Best-fit values LogEC50,P220A-2,-7.989
same,Best-fit values Span,P220A-2,58.87
same,Best-fit values Top,P220A-2,58.25
same,EC50,"P220A-2, read-out: Best-fit values EC50",10.3 nM
same,Best-fit values Bottom,P220A-3,-0.6988
same,Best-fit values LogEC50,P220A-3,-8.034
same,Best-fit values Span,P220A-3,50.86
same,Best-fit values Top,P220A-3,50.16
same,EC50,"P220A-3, read-out: Best-fit values EC50",9.24 nM
same,Bottom (best-fit value),[7],-1.308
same,LogEC50 (best-fit value),[7],-8.149
same,Span (best-fit value),[7],94.92
same,Top (best-fit value),[7],93.61
same,EC50,"S279A-1 (run 1), β-arrestin1 recruitment, read-out: EC50 (best-fit value)",7.09 nM
same,Bottom (best-fit value),[8],-2.227
same,Span (best-fit value),[8],74.73
same,Top (best-fit value),[8],72.5
same,EC50,"S279A-2 (run 2), β-arrestin1 recruitment, read-out: EC50 (best-fit value)",21.4 nM
same,Bottom (best-fit value),[9],0.9887
same,LogEC50 (best-fit value),[9],-6.436
same,Span (best-fit value),[9],131.8
same,Top (best-fit value),[9],132.8
same,EC50,"S279A-3 (run 3), β-arrestin1 recruitment, read-out: EC50 (best-fit value)",366 nM
same,Best-fit values Bottom,W269A-1,0.3902
same,Best-fit values LogEC50,W269A-1,-7.096
same,Best-fit values Span,W269A-1,27.42
same,Best-fit values Top,W269A-1,27.81
same,EC50,"W269A-1, read-out: Best-fit values EC50",80.1 nM
same,Best-fit values LogEC50,W269A-2,-7.281
same,Best-fit values Span,W269A-2,32.61
same,Best-fit values Top,W269A-2,36.93
same,EC50,"W269A-2, read-out: Best-fit values EC50",52.3 nM
same,Best-fit values Bottom,W269A-3,3.687
same,Best-fit values LogEC50,W269A-3,-7.475
same,Best-fit values Span,W269A-3,31.64
same,Best-fit values Top,W269A-3,35.33
same,EC50,"W269A-3, read-out: Best-fit values EC50",33.5 nM
same,Bottom (best-fit),Y205A-1,-3.221
same,LogEC50 (best-fit),Y205A-1,-7.699
same,Span (best-fit),Y205A-1,139.2
same,Top (best-fit),Y205A-1,135.9
same,EC50,"Y205A-1, read-out: EC50 (best-fit)",20 nM
same,Bottom (best-fit),Y205A-2,-1.321
same,LogEC50 (best-fit),Y205A-2,-8.57
same,Span (best-fit),Y205A-2,93.02
same,Top (best-fit),Y205A-2,91.7
same,EC50,"Y205A-2, read-out: EC50 (best-fit)",2.69 nM
same,Bottom (best-fit),Y205A-3,0.3514
same,LogEC50 (best-fit),Y205A-3,-7.837
same,Span (best-fit),Y205A-3,328.7
same,Top (best-fit),Y205A-3,329.1
same,EC50,"Y205A-3, read-out: EC50 (best-fit)",14.5 nM
same,β-arrestin recruitment of mutant,Y302(7.43)A,slightly impaired
same,Bottom (best-fit value),[10],-0.3068
same,LogEC50 (best-fit value),[10],-8.733
same,Span (best-fit value),[10],87.43
same,Top (best-fit value),[10],87.12
same,EC50,"Y302A-1 (run 1), β-arrestin1 recruitment, read-out: EC50 (best-fit value)",1.85 nM
same,Bottom (best-fit value),[11],0.826
same,LogEC50 (best-fit value),[11],-8.763
same,Span (best-fit value),[11],86.05
same,Top (best-fit value),[11],86.87
same,EC50,"Y302A-2 (run 2), β-arrestin1 recruitment, read-out: EC50 (best-fit value)",1.72 nM
same,Bottom (best-fit value),[12],1.139
same,LogEC50 (best-fit value),[12],-8.739
same,Span (best-fit value),[12],85.71
same,Top (best-fit value),[12],86.85
same,EC50,"Y302A-3 (run 3), β-arrestin1 recruitment, read-out: EC50 (best-fit value)",1.82 nM
same,Bottom,[13],-0.3262
same,LogEC50,[13],-7.224
same,Span,[13],58.86
same,Top,[13],58.54
same,EC50,"best-fit value, I195A-1 (run 1), read-out: EC50",59.8 nM
same,Bottom,[14],-0.9813
same,LogEC50,[14],-7.334
same,Span,[14],61.03
same,Top,[14],60.04
same,EC50,"best-fit value, I195A-2 (run 2), read-out: EC50",46.3 nM
same,Bottom,[15],-0.6923
same,LogEC50,[15],-7.245
same,Span,[15],59.4
same,Top,[15],58.71
same,EC50,"best-fit value, I195A-3 (run 3), read-out: EC50",56.9 nM
same,Bottom,"best-fit value, L99A-1 (run 1)",17.86
same,LogEC50,"best-fit value, L99A-1 (run 1)",-6.902
same,Span,"best-fit value, L99A-1 (run 1)",95.94
same,Top,"best-fit value, L99A-1 (run 1)",113.8
same,Bottom,"best-fit value, L99A-2 (run 2)",-2.171
same,LogEC50,"best-fit value, L99A-2 (run 2)",-7.606
same,Span,"best-fit value, L99A-2 (run 2)",48.46
same,Top,"best-fit value, L99A-2 (run 2)",46.29
same,EC50,"best-fit value, L99A-2 (run 2), read-out: EC50",24.8 nM
same,Bottom,"best-fit value, L99A-3 (run 3)",-2.89
